Experimental data: patent US20130324508A1, “BIOMARKER FOR PROSTATE CANCER AND METHOD OF USING THE SAME” (UNIVERSITY OF TENNESSEE RESEARCH FOUNDATION, priority 2012, published 2013)

Legend:
22Rv1 [1] = assay: PSA and Runx 2II gene expression in 22Rv1 cells (real time RT-PCR); assay type: cell-based, human; details: for PSA gene expression / Runx 2II gene expression: 22Rv1, 8 hours stimulation, OC 80 ng/ml, arginine 30 mM, R1881 100 nM; for PSA gene expression: FIG. 4A; for Runx 2II gene expression: FIG. 4B
Method: (§1) Human tissue cDNAs were obtained from Clontech Laboratories, Inc. Total RNA from human prostate cancer cells was isolated with RNeasy Mini Kit (Qiagen Inc., Valencia, Calif.). RT-PCR was done using two-step RNA PCR (Perkin-Elmer). In separate reactions, 2.0 μg of DNase-treated total RNA was reverse-transcribed into cDNA with the respective reverse primers specified below and Moloney murine leukemia virus reverse transcriptase (Gibco Life Technologies, Inc.). Reactions were carried out at 42° C. for 60 min followed by 94° C. for 5 min and 5° C. for 5 min. The products of first-strand cDNA synthesis were directly amplified by PCR using AmpliTaq DNA polymerase (Perkin-Elmer). The primers for human GPRC6A are as follows: hGPRC6A.F203: […] (SEQ ID NO: 1) and hGPRC6A.R630: […] (SEQ ID NO: 2). For housekeeping gene control G3PDH gene, G3PDH.F143: […] (SEQ ID NO: 3) and G3PDH.R1050: […] (SEQ ID NO: 4). For quantitative real time RT-PCR assessment of PSA and Runx 2II genes expression, total RNA was isolated and reverse transcribed from 22Rv1 cells that stimulated with or without OC (80 ng/ml), arginine (30 mM) and R1881 (100 nM) as previously described using specific primer sets. The primers sequences were PSA. For: […] (SEQ ID NO: 5) and PSA.Rev: […] (SEQ ID NO: 6); Runx 2. For: […] (SEQ ID NO: 7) and Runx 2. Rev: […] (SEQ ID NO: 8), and the threshold cycle (Ct) of tested-gene product from the indicated genotype was normalized to the Ct for cyclophilin A as previously described (18).
(§2) After 8 hours stimulation, OC, arginine and R1881 stimulated PSA and Runx 2II gene expression in human prostate cancer 22Rv1 (FIG. 4A and FIG. 4B) and PC-3 cells (FIG. 4C and FIG. 4D). * indicates a significant difference from control and stimulation at p<0.05 respectively.
To investigate whether the observed ligand-induced PSA and Runx2 gene expression in the prostate cancer cells is due to simulation of GPRC6A, the response to GPRC6A ligands was examined after knock-down of GPRC6A. ERK activity was assessed in 22Rv1 stably transfected with GPRC6A siRNA-514 and compared this response to transfected cells with a random negative control siRNA plasmid, which were used as controls.

PC-3 [2] = assay: PSA and Runx 2II gene expression in PC-3 cells (real time RT-PCR); assay type: cell-based, human; details: 8 hours stimulation; for PSA gene expression: FIG. 4C; for Runx 2II gene expression: FIG. 4D
Method: as §1, §2

22Rv1 [3] = assay: ERK activation in 22Rv1 prostate cancer cells (Western blot); assay type: cell-based, human; details: for phospho-ERK: 22Rv1 (androgen receptor positive), calcium 10 mM, zinc 0.2 mM, OC 20 ng/ml, arginine 20 mM, testosterone-BSA 60 nM, 5 min, FIG. 2B; for OC and testosterone stimulated phospho-ERK activity: FIG. 5B
Method: (§3) Briefly, human prostate cancer cells and the cells transfected with GPRC6A will be made quiescent by overnight incubation in serum-free DMEM/F12 containing 0.1% BSA and stimulated with various ligands at different doses. ERK activation will be assessed 5 to 30 minutes after treatment by immunoblotting using anti-phospho-ERK1/2 MAP kinase antibody (Cell Signaling Technology) corrected for the amount of ERK using an anti-ERK1/2 MAP Kinase antibody (Cell Signaling Technology) to measure ERK levels.
(§4) Referring to FIG. 2. […] Here, calcium (1-20 mM), zinc (0.2-0.8 mM), OC (5-60 ng/ml), arginine (5-30 mM), and testosterone-BSA (5-100 nM) are confirmed to be functional ligands for GPRC6A (16-17, 19). […] Calcium (10 mM), zinc (0.2 mM), OC (20 ng/ml), arginine (20 mM), and testosterone-BSA (60 nM) increased phospho-ERK in both of these cells. The HEK cells transfected with GPRC6A or without the plasmid cDNA of GPRC6A or 22Rv1 or PC-3 were incubated in Dulbecco's modified Eagle's medium/F-12 containing 0.1% bovine serum albumin quiescence media and exposed to the extracellular calcium, OC, arginine, or testosterone-BSA at indicated concentrations for 5 min, and ERK activation was determined as described under Materials and Methods. Representative blots are shown, and the results were verified in at least three independent experiments.
(§5) To confirm the importance of GPRC6A signaling in prostate cancer cell line, the response to GPRC6A ligands was accessed after knock-down of GPRC6A using siRNA. For these studies, ERK activity was assessed in 22Rv1 and PC-3 cells stably transfected with GPRC6A siRNA-202 and siRNA-514. These responses were compared control groups consisting of mock-transfected cells and transfected cells with a random negative control siRNA plasmid.

PC-3 [4] = assay: ERK activation in PC-3 prostate cancer cells (Western blot); assay type: cell-based, human; details: for phospho-ERK: PC-3 (androgen receptor negative), calcium 10 mM, zinc 0.2 mM, OC 20 ng/ml, arginine 20 mM, testosterone-BSA 60 nM, 5 min, FIG. 2B; for OC and testosterone stimulated phospho-ERK activity: PC-3 transfected with siRNA, FIG. 5B
Method: as §3, §4, §5

[5] = test system: non-transfected HEK-293 cells; assay: ERK activation in non-transfected HEK-293 cells (Western blot); assay type: cell-based; details: same ligand concentrations, 5 min
Method: as §3, §4

GPRC6A [6] = assay: ERK activation in HEK-293 cells transfected with GPRC6A (Western blot); assay type: cell-based; details: HEK-293 overexpressing GPRC6A; 5 min; calcium 1-20 mM, zinc 0.2-0.8 mM, OC 5-60 ng/ml, arginine 5-30 mM, testosterone-BSA 5-100 nM; FIG. 2A
Method: as §3, §4

22Rv1 [7] = assay: Chemotaxis assay of 22Rv1 cells; assay type: cell-based, human; details: migration toward calcium or OC, various concentrations; FIG. 6C
Method: The migration of 22Rv1 cells stably expressing negative control siRNA and human GPRC6A-specific siRNA using a previously described chemotaxis assay (22). The migration index was calculated, and was defined as number of cells crossing the filter toward calcium or OC (various concentrations)/number of cells migrating toward medium alone (control). Each experiment was performed at least three times, in duplicate.
Now referring to FIG. 6. To assess whether GPRC6A mediates prostate cancer cells chemotaxis and metastases, the ability of calcium and OC to evoke chemotaxis of human prostate cancer cell 22Rv1 expressing GPRC6A was examined. The ligands of GPRC6A, OC, arginine and R1881 stimulated gene expression of PSA (FIG. A) and Runx2 (FIG. B) were attenuated by GPRC6A siRNA in 22Rv1, human prostate cancer cells. […] The experiments were described in Materials and methods. In all of the above studies, values for relative cell proliferation (expressed as percent of control) represent the mean±SEM of a minimum of three separate experiments.

22Rv1 or PC-3 = assay: Cell proliferation by hemocytometer cell count; assay type: cell-based, human; details: 22Rv1 or PC-3, 72 h culture, versus control without added ligand; FIG. 3
Method: The prostate cancer cell lines 22Rv1, PC-3 and LNcaP and the prostate cell lined RWPE-1 derived from normal prostate were obtained from the American Type Culture Collection (Manassas, Va.). The prostate cells were maintained in RPMI 1640 supplemented with 10% fetal bovine serum (Gibco Life Technologies, Inc.). Cells (10^3 cells/well) were cultured in triplicate in a 96-well flat-bottomed microculture dish using RPMI 1640 containing 10% CFBS in the presence and absence of various concentrations of GPRC6A ligands, including: calcium, amino acids, calcimimetic and OC for 72 h. Cell proliferation was determined by counting cells with a hemocytometer (21).
Now referring to FIG. 3. To determine if GPRC6A ligands enhance prostate cell growth, changes were accessed in cell numbers in 22Rv1 and PC-3 cells exposed to different concentrations of extracellular calcium or OC over a three-day culture period. […] Cell proliferation was determined by counting cells in a hemocytometer method as described in Materials and methods. In all of the above studies, values for relative cell proliferation (expressed as percent of control) represent the mean±SEM of a minimum of three separate experiments. * indicates a significant difference from control and stimulation at p<0.05, respectively.

GPRC6A [8] = assay: siRNA suppression of GPRC6A gene expression (RT-PCR); assay type: cell-based, human; details: compared to controls, FIG. 5A
From the text: For GPRC6A knockdown experiments, two short interfering RNAs (siRNAs) (19 nucleotides each) have been designed from the hGPRC6A sequence (NM_148963) (SEQ ID NO: 9). These are GPRC6A siRNA-202: CCAGGAGTGTGTTGGCTTT (SEQ ID NO: 10) and siRNA-514: GCCACAGGTGGGTTATGAA (SEQ ID NO: 11). Two siRNA hairpins were synthesized and cloned into a pSilencer™ 4.1-CMV neo vector (Ambion). A circular pSilencer™ 4.1-CMV neo vector that expresses a hairpin siRNA with limited homology to any known sequence was used as a negative control. The constructs of siRNA duplexes have been stably transfected into human prostate cancer cells using Lipofectamine™ (Invitrogen) and were selected by G418 (Invitrogen). Successful knock down of GPRC6A will be confirmed by assessing RT-PCR analysis of GPRC6A expression.
as §5

[9] = 22Rv1 stably transfected with siRNA
[10] = PC-3 stably transfected with siRNA

| Compound | PSA gene expression (22Rv1 [1]) | Runx 2II gene expression (22Rv1 [1]) | PSA gene expression (PC-3 [2]) | Runx 2II gene expression (PC-3 [2]) | phospho-ERK (22Rv1 [3]) | phospho-ERK (PC-3 [4]) | ERK response [5] | stimulation of ERK activity (GPRC6A [6]) | OC and testosterone stimulated phospho-ERK activity (22Rv1 [3]; 22Rv1 transfected with siRNA) | OC and testosterone stimulated phospho-ERK activity (PC-3 [4]) | mRNA expression of GPRC6A (GPRC6A [8]; [9]) | mRNA expression of GPRC6A (GPRC6A [8]; [10]) | further results |
| --- | --- | --- | --- | --- | --- | --- | --- | --- | --- | --- | --- | --- | --- |
| C[C@]1(O)CC[C@H]2[C@@H]3CCC4=CC(=O)CCC4=C3C=C[C@@]21C [R1881, Methytrienolone] | stimulated | stimulated | stimulated | stimulated | – | – | – | – | – | – | – | – | – |
| [Cl-].[Cl-].[Zn+2] [zinc, zinc chloride] | – | – | – | – | increased | increased | failed to respond | dose-dependent stimulation | – | – | – | – | – |
| [Ca+2].[Cl-].[Cl-] [calcium, calcium chloride] | – | – | – | – | increased | increased | failed to respond | dose-dependent stimulation | – | – | – | – | chemotaxis of 22Rv1 prostate cancer cells (22Rv1 [7]): induced the chemotaxis; increase in cell number (22Rv1 or PC-3): ~30% |
| GPRC6A siRNA-202: siRNA, 19 nucleotides, CCAGGAGTGTGTTGGCTTT (SEQ ID NO: 10), hairpin cloned into pSilencer 4.1-CMV neo vector | – | – | – | – | – | – | – | – | significantly decreased | significantly decreased | Decreased | Decreased | ERK phosphorylation by extracellular calcium, testosterone, arginine and OC (22Rv1 [3]; 22Rv1 transfected with siRNA, FIG. 5C): failed to stimulate |
| N=C(N)NCCC[C@H](N)C(=O)O [arginine, L-Arginine] | stimulated | stimulated | stimulated | stimulated | increased | increased | failed to respond | dose-dependent stimulation | – | – | – | – | – |
| siRNA-514: siRNA, 19 nucleotides, GCCACAGGTGGGTTATGAA (SEQ ID NO: 11), hairpin cloned into pSilencer 4.1-CMV neo vector | – | – | – | – | – | – | – | – | significantly decreased | significantly decreased | Decreased | Decreased | ligand-induced mRNA expression of PSA (22Rv1 [1]; 22Rv1 stably transfected with siRNA versus negative control siRNA, FIG. 6A): Significantly decreased; ligand-induced mRNA expression of Runx2 (22Rv1 [1]; 22Rv1 stably transfected with siRNA versus negative control siRNA, FIG. 6B): Significantly decreased |
